Results taken from ChEMBL document CHEMBL1201862, “PubChem BioAssay data set” (2004).
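Exposure lasted 48 hours, with cells grown in 96-well plates and compounds tested at five concentrations. GI50 marks 50% less growth.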 Active and inactive are the calls of the source. No stated cut-off is given here; in the data, active = GI50 up to about 1.1 µM and inactive = higher.

How the values were obtained:
Assay in all cases: growth of human tumour cells (NCI), 48 h
786-0 = test system: 786-0
A498 = test system: A498
A549 = test system: A549
ACHN = test system: ACHN
BT-549 = test system: BT-549
CAKI-1 = test system: CAKI-1
CCRF-CEM = test system: CCRF-CEM
COLO 205 = test system: COLO 205
DU-145 = test system: DU-145
EKVX = test system: EKVX
HCC 2998 = test system: HCC 2998
HCT-116 = test system: HCT-116
HCT-15 = test system: HCT-15
HL-60 = test system: HL-60
HOP-62 = test system: HOP-62
HOP-92 = test system: HOP-92
HT-29 = test system: HT-29
Hs-578T = test system: Hs-578T
IGROV-1 = test system: IGROV-1
K562 = test system: K562
KM12 = test system: KM12
LOX IMVI = test system: LOX IMVI
M14 = test system: M14
MCF7 = test system: MCF7
MDA-MB-231 = test system: MDA-MB-231
MDA-MB-435 = test system: MDA-MB-435
MDA-N = test system: MDA-N
MOLT-4 = test system: MOLT-4
Malme-3M = test system: Malme-3M
NCI-H226 = test system: NCI-H226
NCI-H23 = test system: NCI-H23
NCI-H460 = test system: NCI-H460
NCI-H522 = test system: NCI-H522
NCI/ADR-RES = test system: NCI/ADR-RES
OVCAR-3 = test system: OVCAR-3
OVCAR-4 = test system: OVCAR-4
OVCAR-5 = test system: OVCAR-5
OVCAR-8 = test system: OVCAR-8
PC-3 = test system: PC-3
RPMI-8226 = test system: RPMI-8226
RXF 393 = test system: RXF 393
SF-268 = test system: SF-268
SF-295 = test system: SF-295
SF-539 = test system: SF-539
SK-MEL-28 = test system: SK-MEL-28
SK-MEL-2 = test system: SK-MEL-2
SK-MEL-5 = test system: SK-MEL-5
SK-OV-3 = test system: SK-OV-3
SN12C = test system: SN12C
SNB-19 = test system: SNB-19
SR = test system: SR
SW-620 = test system: SW-620
T47D = test system: T47D
TK-10 = test system: TK-10
U-251 = test system: U-251
UACC-257 = test system: UACC-257
UACC-62 = test system: UACC-62
UO-31 = test system: UO-31
SNB-75 = test system: SNB-75

CN(CCCN=C=S)CCCN1c2ccccc2CCc2ccccc21 was tested, and the GI50 (786-0) was 1.64 µM (inactive), the GI50 (A498) was 1.66 µM (inactive) and the GI50 (A549) was 1.71 µM (inactive). The GI50 (ACHN) was 1.75 µM (inactive), the GI50 (BT-549) was 2.83 µM (inactive) and the GI50 (CAKI-1) was 1.73 µM (inactive). The GI50 (CCRF-CEM) was 1.85 µM (inactive), the GI50 (COLO 205) was 1.66 µM (inactive) and the GI50 (DU-145) was 1.83 µM (inactive). For the same molecule, the GI50 (EKVX) was 1.88 µM (inactive), the GI50 (HCC 2998) was 1.31 µM (inactive) and the GI50 (HCT-116) was 1.71 µM (inactive). The GI50 (HCT-15) was 1.49 µM, the GI50 (HL-60) was 1.94 µM (inactive) and the GI50 (HOP-62) was 1.83 µM (inactive). The GI50 (HOP-92) was 2.07 µM (inactive), the GI50 (HT-29) was 1.51 µM (inactive) and the GI50 (Hs-578T) was 2.04 µM (inactive). For the same molecule, the GI50 (IGROV-1) was 1.79 µM (inactive), the GI50 (K562) was 0.45 µM (active) and the GI50 (KM12) was 1.73 µM (inactive). For the same molecule, the GI50 (LOX IMVI) was 1.88 µM (inactive), the GI50 (M14) was 1.71 µM (inactive) and the GI50 (MCF7) was 1.59 µM (inactive). For the same molecule, the GI50 (MDA-MB-231) was 1.8 µM (inactive), the GI50 (MDA-MB-435) was 1.79 µM (inactive) and the GI50 (MDA-N) was 1.71 µM (inactive). For the same molecule, the GI50 (MOLT-4) was 0.611 µM (active), the GI50 (Malme-3M) was 1.99 µM (inactive) and the GI50 (NCI-H226) was 2.04 µM (inactive). The GI50 (NCI-H23) was 1.64 µM (inactive), the GI50 (NCI-H460) was 1.82 µM (inactive) and the GI50 (NCI-H522) was 1.95 µM (inactive). The GI50 (NCI/ADR-RES) was 1.29 µM (inactive), the GI50 (OVCAR-3) was 1.66 µM (inactive) and the GI50 (OVCAR-4) was 1.85 µM (inactive). The GI50 (OVCAR-5) was 1.81 µM (inactive), the GI50 (OVCAR-8) was 1.78 µM (inactive) and the GI50 (PC-3) was 1.69 µM (inactive). The GI50 (RPMI-8226) was 1.87 µM (inactive), the GI50 (RXF 393) was 1.92 µM (inactive) and the GI50 (SF-268) was 1.71 µM (inactive). For the same molecule, the GI50 (SF-295) was 1.71 µM (inactive), the GI50 (SF-539) was 1.76 µM (inactive) and the GI50 (SK-MEL-28) was 2.06 µM (inactive). For the same molecule, the GI50 (SK-MEL-2) was 1.86 µM (inactive), the GI50 (SK-MEL-5) was 1.78 µM (inactive) and the GI50 (SK-OV-3) was 1.63 µM (inactive). For the same molecule, the GI50 (SN12C) was 1.69 µM (inactive), the GI50 (SNB-19) was 1.72 µM (inactive) and the GI50 (SR) was 0.456 µM (active). The GI50 (SW-620) was 2.23 µM (inactive), the GI50 (T47D) was 2.07 µM (inactive) and the GI50 (TK-10) was 1.82 µM (inactive). The GI50 (U-251) was 1.81 µM (inactive), the GI50 (UACC-257) was 2.03 µM (inactive) and the GI50 (UACC-62) was 1.79 µM (inactive). For the same molecule, the GI50 (UO-31) was 1.62 µM (inactive).

NS(=O)(=O)c1ccc(NNc2c3ccccc3nc3c(C(=O)Nc4ccc(S(N)(=O)=O)cc4)cccc23)cc1 was tested, and the GI50 (786-0) was 15.6 µM (inactive), the GI50 (A498) was > 100 µM (inactive) and the GI50 (A549) was > 100 µM (inactive). The GI50 (ACHN) was 27.7 µM (inactive), the GI50 (BT-549) was 5.85 µM (inactive) and the GI50 (CAKI-1) was > 100 µM (inactive). The GI50 (CCRF-CEM) was 14.5 µM (inactive), the GI50 (COLO 205) was 39.9 µM (inactive) and the GI50 (DU-145) was 43.8 µM (inactive). The GI50 (EKVX) was 42.8 µM (inactive), the GI50 (HCC 2998) was 17.4 µM (inactive) and the GI50 (HCT-116) was 22.1 µM (inactive). For the same molecule, the GI50 (HCT-15) was greater than 100 µM, the GI50 (HL-60) was 22.3 µM (inactive) and the GI50 (HOP-62) was 57.3 µM (inactive). For the same molecule, the GI50 (HOP-92) was 5.07 µM (inactive), the GI50 (HT-29) was 26.9 µM (inactive) and the GI50 (Hs-578T) was 19.1 µM (inactive). The GI50 (IGROV-1) was 19.3 µM (inactive), the GI50 (K562) was 21.2 µM (inactive) and the GI50 (KM12) was 27.9 µM (inactive). For the same molecule, the GI50 (LOX IMVI) was 11.5 µM (inactive), the GI50 (M14) was 55.3 µM (inactive) and the GI50 (MCF7) was 12.9 µM (inactive). For the same molecule, the GI50 (MDA-MB-231) was 21.6 µM (inactive), the GI50 (MDA-MB-435) was 49.3 µM (inactive) and the GI50 (MDA-N) was 65 µM (inactive). For the same molecule, the GI50 (MOLT-4) was 7.85 µM (inactive), the GI50 (Malme-3M) was 23.8 µM (inactive) and the GI50 (NCI-H226) was 37.6 µM (inactive). For the same molecule, the GI50 (NCI-H23) was 28.8 µM (inactive), the GI50 (NCI-H460) was 24.2 µM (inactive) and the GI50 (NCI-H522) was 15.2 µM (inactive). For the same molecule, the GI50 (NCI/ADR-RES) was > 100 µM (inactive), the GI50 (OVCAR-3) was 23 µM (inactive) and the GI50 (OVCAR-4) was 19.6 µM (inactive). For the same molecule, the GI50 (OVCAR-5) was 62.7 µM (inactive), the GI50 (OVCAR-8) was 26.5 µM (inactive) and the GI50 (PC-3) was 30.2 µM (inactive). For the same molecule, the GI50 (RPMI-8226) was 24.9 µM (inactive), the GI50 (RXF 393) was 6.73 µM (inactive) and the GI50 (SF-268) was 16.2 µM (inactive). For the same molecule, the GI50 (SF-295) was 37.7 µM (inactive), the GI50 (SF-539) was 25.7 µM (inactive) and the GI50 (SK-MEL-28) was 48.6 µM (inactive). The GI50 (SK-MEL-2) was 13 µM (inactive), the GI50 (SK-MEL-5) was 34.9 µM (inactive) and the GI50 (SK-OV-3) was 50 µM (inactive). The GI50 (SN12C) was 31.5 µM (inactive), the GI50 (SNB-19) was 33.5 µM (inactive) and the GI50 (SNB-75) was 14.5 µM (inactive). For the same molecule, the GI50 (SR) was 9.42 µM (inactive), the GI50 (SW-620) was 15.3 µM (inactive) and the GI50 (T47D) was 6.27 µM (inactive). For the same molecule, the GI50 (TK-10) was > 100 µM (inactive), the GI50 (U-251) was 14.5 µM (inactive) and the GI50 (UACC-257) was 98.4 µM (inactive). For the same molecule, the GI50 (UACC-62) was 22.2 µM (inactive) and the GI50 (UO-31) was 63 µM (inactive).
